The source of these data is article PMC4441817 (Bioorganic & medicinal chemistry letters, 2012).

One data set concerns GGTase II. Particulars: cited from earlier work.
The conditions of data set [1]: cited from earlier work.
The test system of data set [2] is human myeloma RPMI-8226 cell line. As to the kind of experiment: cells. Particulars: RPMI-8226, 48 h, read-out: MTT IC50.
Data set [3] has as its system protein farnesylation or geranylgeranylation. The experiment in a line: Cellular assays of protein farnesylation or geranylgeranylation. The data set is classed as cell-based. Particulars: data not shown.
Data set [4] has as its system human myeloma RPMI-8226 cell line. Particulars: RPMI-8226 cells, 48 hr incubation.
Data set [5] deals with T1, geranylgeranyl transferase II (GGTase II) (Homo sapiens, UniProt P53611+Q92696).
T1 sequence (Q92696 1-567): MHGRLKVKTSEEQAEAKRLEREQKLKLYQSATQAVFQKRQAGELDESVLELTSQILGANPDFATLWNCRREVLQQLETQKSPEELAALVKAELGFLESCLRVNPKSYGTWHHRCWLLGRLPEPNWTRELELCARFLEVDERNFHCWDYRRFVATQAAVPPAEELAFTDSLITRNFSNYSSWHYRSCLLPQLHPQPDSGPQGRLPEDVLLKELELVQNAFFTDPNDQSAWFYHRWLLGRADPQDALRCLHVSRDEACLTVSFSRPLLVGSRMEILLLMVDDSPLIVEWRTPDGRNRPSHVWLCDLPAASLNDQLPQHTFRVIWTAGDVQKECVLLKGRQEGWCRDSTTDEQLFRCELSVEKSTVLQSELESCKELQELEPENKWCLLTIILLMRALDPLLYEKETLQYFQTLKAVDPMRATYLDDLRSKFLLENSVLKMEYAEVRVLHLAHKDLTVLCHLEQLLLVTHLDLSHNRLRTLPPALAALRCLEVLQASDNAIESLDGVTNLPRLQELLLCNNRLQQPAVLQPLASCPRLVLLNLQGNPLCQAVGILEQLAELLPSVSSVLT
T1 sequence (P53611 1-331): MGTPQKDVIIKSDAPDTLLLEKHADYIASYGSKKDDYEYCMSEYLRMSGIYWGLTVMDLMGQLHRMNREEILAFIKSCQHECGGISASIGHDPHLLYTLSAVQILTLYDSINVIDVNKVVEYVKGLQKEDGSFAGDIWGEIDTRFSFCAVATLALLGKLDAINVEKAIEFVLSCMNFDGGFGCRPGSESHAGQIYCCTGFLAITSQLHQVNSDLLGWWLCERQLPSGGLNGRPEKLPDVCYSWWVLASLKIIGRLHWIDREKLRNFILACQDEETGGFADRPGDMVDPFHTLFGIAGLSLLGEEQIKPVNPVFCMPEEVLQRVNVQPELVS
The class given is biochemical. The conditions noted are these: recombinant enzyme.

For the compound `O=C(O)C(O)(Cc1cnc2ccccn12)P(=O)(O)O` (single isomer, unassigned; (+)) [(+)-3-IPEHPC], in the data set with GGTase II, the “potency relative to 3-PEHPC” value was “more potent than 3-PEHPC”, the “type of inhibition with respect to GGPP” value is “mixed-type inhibitor” and the “type of inhibition with respect to Rab” value is “uncompetitive inhibitor”.
Take `O=C(O)C(O)(Cc1cccnc1)P(=O)(O)O` (stereo not drawn) [Compound 3-PEHPC]: the “selectivity for GGTase II (in words)” value with GGTase II is given as “good selectivity for GGTase II”. Further, the “concentrations required to observe cellular effects” value in data set [1] is on record as “millimolar concentrations are required”.
Usually IC50 stands for the point on the concentration scale where inhibition reaches its midpoint. Consider `O=P(O)(O)C(Cc1cn(Cc2ccccc2)nn1)P(=O)(O)O` [Compound 11a], for which the IC50 in data set [2] is more than 1000 µM.
Turning to `O=P([O-])([O-])C(Cc1cn(Cc2ccc3ccccc3c2)nn1)P(=O)([O-])[O-].[Na+].[Na+].[Na+].[Na+]` [Compound 11b], the “effect on protein farnesylation or geranylgeranylation” value in data set [3] is given as “does not affect protein farnesylation or geranylgeranylation”. In addition, the “cytotoxic potency in the MTT assay (in words)” value in data set [4] is on record as “most potent”. Moreover, the IC50 in data set [2] amounted to 200 µM.
`CC(C)=CCCC(C)=CCn1cc(CC(P(=O)([O-])[O-])P(=O)([O-])[O-])nn1.[Na+].[Na+].[Na+].[Na+]` [Compound 11c]: the “activity as a GGTase II inhibitor (in words)” value in data set [5] is on record as “no activity”. For the same compound, the IC50 in data set [2] was more than 1000 µM.
The corresponding values for `CC(C)=CCC/C(C)=C/CCC(C)=CCn1cc(CC(P(=O)([O-])[O-])P(=O)([O-])[O-])nn1.[Na+].[Na+].[Na+].[Na+]` [Compound 11d] are “modest activity” and 900 µM.
For the compound `CC(C)=CCC/C(C)=C/CC/C(C)=C/CCC(C)=CCn1cc(CC(P(=O)([O-])[O-])P(=O)([O-])[O-])nn1.[Na+].[Na+].[Na+].[Na+]` [Compound 11e], the “activity as a GGTase II inhibitor (in words)” value in data set [5] was “most active compound”. The IC50 in data set [2] was found to be 1000 µM.
